In PubChem BioAssay (NCI):
Values joined by “and” are separate entries in the source; they are usually repeats but may differ in a detail not shown here. Equal values may be shown once.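 Cells were grown in 96-well plates and exposed to each compound for 48 hours at five concentrations; endpoints were interpolated linearly between bracketing concentrations, or set to the highest concentration if not reached. Abbreviation: GI50, concentration required for 50% inhibition of growth. TGI is the concentration that stops growth completely.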

Key:
Assay in all cases: NCI anticancer screen, dose series, 48 h
COLO 205 colon = system: COLO 205 colon
HCC-2998 colon = system: HCC-2998 colon
HL-60(TB) leukemia = system: HL-60(TB) leukemia
NCI-H226 lung = system: NCI-H226 lung
SF-295 CNS = system: SF-295 CNS
SK-MEL-2 melanoma = system: SK-MEL-2 melanoma
SK-OV-3 ovarian = system: SK-OV-3 ovarian
BT-549 breast = system: BT-549 breast
MDA-MB-231 breast = system: MDA-MB-231 breast
HS 578T breast = system: HS 578T breast

Row | SMILES | TGI (COLO 205 colon) | TGI (HCC-2998 colon) | TGI (HL-60(TB) leukemia) [µM] | TGI (NCI-H226 lung) | TGI (SF-295 CNS) [µM] | TGI (SK-MEL-2 melanoma) | TGI (SK-OV-3 ovarian) | TGI (BT-549 breast) [µM] | TGI (MDA-MB-231 breast) [µM] | TGI (HS 578T breast) [µM] | GI50 (BT-549 breast) [µM] | GI50 (COLO 205 colon) [µM] | GI50 (HS 578T breast) [µM] | GI50 (MDA-MB-231 breast) [µM] | GI50 (NCI-H226 lung) [µM] | GI50 (SF-295 CNS) [µM] | GI50 (SK-MEL-2 melanoma) [µM] | GI50 (SK-OV-3 ovarian) [µM]
1 | Cc1c(C(=O)CSc2nc3ccccc3c(=O)n2-c2ccccc2)c(=O)n(-c2ccccc2)n1C | > 100 µM | > 100 µM | > 100 | 69.2 µM | 66.2 | > 100 µM | 41.4 µM | – | – | – | – | – | – | – | – | – | – | –
2 | CCOC(=N)n1c(=O)n(C2=NCCN2)c2ccccc21 | > 100 µM | > 100 µM | > 100 | > 100 µM | > 100 | – | > 100 µM | > 100 | > 100 | – | – | – | – | – | – | – | – | –
3 | CCOC(=O)c1c(-c2ccc(OC)cc2)c(C#N)c(=S)n(C2OC(COC(C)=O)C(OC(C)=O)C(OC(C)=O)C2OC(C)=O)c1C (stereo not drawn) | > 100 µM | > 100 µM | > 100 | > 100 µM | > 100 | – | > 100 µM | – | > 100 | – | – | – | – | – | – | – | – | –
4 | COCOc1ccc(Cn2c(=O)n(C)c(=O)c3c2ncn3C)cc1[N+](=O)[O-] | > 100 µM | > 100 µM | > 100 | > 100 µM | > 100 | – | > 100 µM | – | – | – | – | – | – | – | – | – | – | –
5 | O=C(NC(Cc1ccc(I)cc1)C(=O)O)c1ccc(I)cc1 (stereo not drawn) | > 100 µM | > 77.3 µM | > 100 | > 100 µM | > 100 | > 100 µM | > 100 µM | – | – | – | – | – | – | – | – | – | – | –
6 | O=C(/C=C/c1ccsc1)c1ccsc1 | 52.8 µM | 35.6 µM | 40.6 | 39 µM | > 100 | > 100 µM | > 100 µM | – | 42.4 | > 100 | – | – | – | – | – | – | – | –
7 | COc1cc(C2CC(C)(Nc3ccccc3)Oc3cc4c(cc32)OCO4)cc(OC)c1OC (stereo not drawn) | 5.27 µM | 3.98 µM | – | 7.12 µM | 3.57 | > 29.4 µM | 25.9 µM | > 100 | 4.34 | > 100 | – | – | – | – | – | – | – | –
8 | COc1cc([N+](=O)[O-])c(OC)cc1-c1nc2sc(Cl)cn2c1/C=N/Nc1ccccn1 | > 50 µM | – | – | 48.8 µM | 41.8 | > 50 µM | 16.5 µM | 38.7 | 30.7 | > 50 | 15.5 | > 50 | 16.8 | 8.61 | 12.1 | 12.4 | > 50 | 9.11
9 | COc1nc(C#CCC(C)O)nc(OC)n1 (stereo not drawn) | 56.8 µM | – | 94.6 | – | > 100 | 87.3 µM | > 100 µM | 36 | 52 | 72 | – | – | – | – | – | – | – | –
10 | CC(=O)N/N=C1\NC(=O)C[C@H]2[C@@H]3CC=C4C[C@@H](OC(C)=O)CC[C@]4(C)[C@H]3CC[C@]12C | > 100 µM | – | > 100 | 54.6 µM | 45.1 | > 100 µM | 53.7 µM | 32.7 | 39.3 | 88.6 | – | – | – | – | – | – | – | –
11 | Clc1ccc(-c2nn3c(-c4ccncc4)nnc3s2)cc1 | > 100 µM | – | > 100 | > 100 µM | > 100 | > 100 µM | 84.9 µM | > 100 | > 100 | > 100 | – | – | – | – | – | – | – | –
12 | CC(=O)OCC1OC(n2cc([N+](=O)[O-])c(=O)[nH]c2=O)C(OC(C)=O)C(OC(C)=O)C1OC(C)=O (stereo not drawn) | > 100 µM | > 100 µM | > 100 | > 100 µM | > 100 | > 100 µM | > 100 µM | – | – | – | – | – | – | – | – | – | – | –
13 | CC(C(=O)n1nnc2ccccc21)N(c1ccccc1)c1ccccc1 (stereo not drawn) | > 100 µM | > 100 µM | > 100 | > 100 µM | > 100 | > 100 µM | > 100 µM | – | – | – | – | – | – | – | – | – | – | –
14 | Cc1cc2[nH]c3[nH]c(=O)[nH]c(=O)c3c2cc1C | > 100 µM | > 100 µM | – | > 100 µM | > 100 | > 100 µM | > 100 µM | > 100 | > 100 | > 100 | – | – | – | – | – | – | – | –
15 | O=S(=O)(O)c1cc2ccc1/C=C\c1ccc(cc1S(=O)(=O)O)N=Nc1ccc(c(S(=O)(=O)O)c1)/C=C\c1ccc(cc1S(=O)(=O)O)N=N2 | > 100 µM | > 100 µM | > 100 | > 100 µM | > 100 | > 100 µM | > 100 µM | – | – | – | – | – | – | – | – | – | – | –
16 | NNC(=O)c1ccc[n+](CCc2ccccc2)c1 | > 100 µM | > 100 µM | > 100 | > 100 µM | > 100 | – | > 100 µM | > 100 | > 100 | > 100 | – | – | – | – | – | – | – | –
17 | C=C[C@@H]1C(CO)=CCC2[C@H]1CCC1C(C)(C)C(=O)CC[C@]21C (stereo partly drawn) | > 100 µM | > 100 µM | > 100 | > 100 µM | > 100 | > 100 µM | > 100 µM | – | – | > 100 | – | – | – | – | – | – | – | –
18 | COc1ccc(CC(O)CN2CCOCC2)cc1 (stereo not drawn) | – | – | > 100 | > 100 µM | > 100 | > 100 µM | – | > 100 | > 100 | > 100 | – | – | – | – | – | – | – | –
19 | O=C1CN2C(c3ccccc3)=NN(c3ccc([N+](=O)[O-])cc3)C2(c2ccccc2)c2cc(Cl)ccc2N1CC1CC1 (stereo not drawn) | > 100 µM | > 100 µM | – | > 100 µM | > 100 | – | > 100 µM | > 100 | > 100 | > 100 | – | – | – | – | – | – | – | –
20 | Cc1cn(C2OC(C)(CO)C(O)C2O)c(=O)[nH]c1=O (stereo not drawn) | > 100 µM | > 100 µM | – | – | > 100 | > 100 µM | > 100 µM | – | – | – | – | – | – | – | – | – | – | –
21 | CCCCC1c2c([nH]c3ccccc23)C2C(=O)N(c3ccc(OC)cc3)C(=O)C2C1CCC (stereo not drawn) | 6.34 µM | > 10 µM | 5.45 | > 10 µM | > 10 | > 10 µM | > 10 µM | – | > 10 | 4.81 | – | – | – | – | – | – | – | –
22 | C=CCOC(=O)CC[N+]1=CCC(c2ccccc2)(c2ccccc2)O1 | > 100 µM | > 100 µM | – | > 100 µM | > 100 | > 100 µM | > 100 µM | > 100 | > 100 | > 100 | – | – | – | – | – | – | – | –
23 | CC[C@H]1CN2CCc3cc(OC)c(OC)cc3[C@@H]2C[C@@H]1C[C@H]1NCCc2cc(OC)c(OC)cc21 | 0.0283 µM and 0.0201 µM | 0.0943 µM and 0.0555 µM | – | 0.164 µM and 0.476 µM | – | 0.111 µM and 0.17 µM | 0.223 µM and 0.991 µM | 0.658 | 0.0458 | 0.0665 | – | – | – | – | – | – | – | –
